Read-outs that look alike come from different tables or passages of the source.
Target: Omicron spike protein (Severe acute respiratory syndrome coronavirus 2, UniProt P0DTC2, E484A/G339D/G446S/G496S/K417N/N440K/N501Y/Q493R/Q498R/S371L/S373P/S375F/S477N/T478K/Y505H)
Assay type: binding, SARS-CoV-2 Omicron variant (B.1.1.529 BA.1)

SMILES | remaining activity % of omicron spike proteins (0.1 µM) [%] | remaining activity % of omicron spike proteins (0.2 µM) [%] | remaining activity % of omicron spike proteins (0.5 µM) [%] | remaining activity % of omicron spike proteins (0.75 µM) [%] | remaining activity % of omicron spike proteins (1 µM) [%]
Cc1ccc2nc(NC(=O)Cn3cc(CN4C(=O)C(=O)c5ccccc54)nn3)sc2c1 [compound 12] | 94 | 90 | 82 | 74 | 59
O=C(Cn1cc(CSc2nc3ccccc3n2Cc2cn(CC(=O)NNC(=S)Nc3ccccc3)nn2)nn1)NNC(=S)Nc1ccccc1 [compound 4] | 73.1 | 40 | 20 | 10 | 8
Nn1c(Cn2cc(CSc3nc4ccccc4n3Cc3cn(Cc4n[nH]c(=S)n4N)nn3)nn2)n[nH]c1=S [compound 7] | 85 | 43 | 40 | 35 | 30
Cc1onc(NS(=O)(=O)c2ccc(-n3cc(CSc4nc5ccccc5n4Cc4cn(-c5ccc(S(=O)(=O)Nc6noc(C)c6C)cc5)nn4)nn3)cc2)c1C [compound 9] | 65.8 | 30.4 | 10.3 | 5.1 | 2
O=C(Cn1cc(CSc2nc3ccccc3n2Cc2cn(CC(=O)NNC(=S)Nc3ccc(F)cc3)nn2)nn1)NNC(=S)Nc1ccc(F)cc1 [compound 5] | 82 | 38.7 | 30 | 20 | 16
S=c1[nH]nc(Cn2cc(CSc3nc4ccccc4n3Cc3cn(Cc4n[nH]c(=S)n4-c4ccccc4)nn3)nn2)n1-c1ccccc1 [compound 6] | 79 | 45.6 | 29 | 16 | 10
CC(C)(O/N=C(\C(=O)N[C@@H]1C(=O)N2C(C(=O)[O-])=C(C[n+]3ccccc3)CS[C@H]12)c1csc(N)n1)C(=O)O [Ceftazidime, ceftazidime, reference compound] | 89 | 68 | 54 | 44 | 34

— publication PMC9502539, “1,2,3-Triazole-Benzofused Molecular Conjugates as Potential Antiviral Agents against SARS-CoV-2 Virus Variants” (Life, 2022)
